# Assays:
# [1] = tested on: AMPK-mTOR signaling pathway; test: Western blot of mTOR signaling marker proteins; format: cell-based, human; conditions: HeLa
# Procedure: HeLa cells treated with indicated time and concentrations of N-desmethyldauricine were harvested and lysed in RIPA buffer (Cell Signaling). The cell lysates were then resolved by SDS-PAGE. After electrophoresis, the proteins from SDS-PAGE were transferred to nitrocellulose membrane which was then blocked with 5% non-fat dried milk for 60 minutes. The membrane was then incubated with P-p70S6K, p70S6K, P-AMPK, AMPK and actin primary antibodies (1:1000) in TBST overnight at 4° C. respectively. After that, the membrane was further incubated with HRP-conjugated secondary antibodies for 60 minutes. Finally, protein bands were visualized by using the ECL Western Blotting Detection Reagents (Invitrogen).
# [2] = tested on: Atg7+/+ cells; test: Annexin V flow cytometry cell death, Atg7 wild-type MEFs; format: cell-based, mouse; conditions: 10 μM, 24 h
# Procedure: (§1) Cell viability was measured using an annexin V staining kit (BD Biosciences, San Jose, Calif., USA). Briefly, Atg7 wild-type (Atg7^+/+ or Atg7-wt) and Atg7 deficient (Atg7^−/− or Atg7-ko) mouse embryonic fibroblasts (MEFs) were treated with the 10 μM N-desmethyldauricine for 24 h. Cells were then harvested and analysed by multiparametric flow cytometry using FITC-Annexin V and Propidium iodide staining (BD Biosciences, San Jose, Calif., USA) according to the manufacturer's instructions. Flow cytometry was then carried out using a FACSCalibur flow cytometer (BD Biosciences, San Jose, Calif., USA). Data acquisition and analysis was performed with CellQuest (BD Biosciences, San Jose, Calif., USA). Data were obtained from three independent experiments.
# [3] = tested on: autophagy deficient cells (Atg7−/−); test: Annexin V flow cytometry cell death, Atg7 deficient MEFs; format: cell-based, mouse; conditions: 10 μM, 24 h
# Procedure: as §1
# [4] = tested on: EGFP-tagged mutant huntingtin (Q23, Q55, Q74); test: Removal of mutant huntingtin by immunoblotting; format: cell-based; conditions: PC 12, 7.5 μM, 24 hours
# Procedure: PC 12 cells were transfected transiently with EGFP-HDQ23/55/74 (Q23, Q55, Q74) plasmids for 24 hours using Lipofectamine Plus LTX reagent (Invitrogen) according to the manufacturer's protocol. The transfected cells were then treated with N-desmethyldauricine for 24 hours. The removal of mutant huntingtin, (Q23, Q55, Q74) were then quantitated by immunoblotting with antibody against EGFP.
smiles,measurement,setting,value
COc1cc2c(cc1OC)[C@@H](Cc1ccc(Oc3cc(C[C@H]4NCCc5cc(OC)c(OC)cc54)ccc3O)cc1)N(C)CC2 [N-desmethyldauricine],p70S6K phosphorylation,[1],concomitant reduction
same,phosphorylation of AMPK,[1]; time dependent,activate
same,cell death,[2],markedly induce cell death
same,cell death,[3],not
same,clearance of overexpressed EGFP-tagged mutant huntingtin,[4],enhance the clearance

# — patent US20150133492A1, “N-desmethyldauricine, A Novel Autophagic Enhancer for Treatment of Cancers and Neurodegenerative Conditions Thereof” (Macau University of Science and Technology, priority 2013, published 2015)
